Assay results reported in article PMC11356571, “The Comparative Metabolism of a Novel Hepatocellular Carcinoma Therapeutic Agent, 2,3-Diamino-N-(4-(benzo[d]thiazol-2-yl)phenyl)propanamide, in Human and Animal Hepatocytes” (Metabolites, 2024).

Biological target: T1, human NAT1 (Homo sapiens, UniProt P18440)
T1 construct: purchased Corning Life Sciences (Woburn, MA, USA)
T1 sequence (P18440 1-290): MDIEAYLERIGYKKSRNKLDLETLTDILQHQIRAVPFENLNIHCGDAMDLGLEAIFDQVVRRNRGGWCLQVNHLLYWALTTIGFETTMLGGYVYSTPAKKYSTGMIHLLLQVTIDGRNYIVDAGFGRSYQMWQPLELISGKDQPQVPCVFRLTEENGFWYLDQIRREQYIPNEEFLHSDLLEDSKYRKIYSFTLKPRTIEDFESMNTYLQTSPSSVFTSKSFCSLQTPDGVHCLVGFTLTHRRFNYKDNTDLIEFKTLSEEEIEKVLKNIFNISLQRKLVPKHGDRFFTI
Assay: Incubation with cDNA-expressed human NAT1
Assay type: in vitro ADME
Settings: cDNA-expressed human NAT1, 60 min at 37 °C, concentration of 0.1 μM
Description: Additionally, M1 was incubated with cDNA-expressed human NAT1 isozyme to confirm the involvement of the NAT1 isozyme in the N-acetylation of M1. This was carried out by monitoring the remaining percentage of M1 and the formation of M2 in a concentration-dependent manner. A 225 μL reaction mixture containing cDNA-expressed human NAT1 at 1 μg/mL, and 1 μM M1 (final concentration: 0.1 and 1 μM) in 0.05 M potassium phosphate buffer was pre-warmed for 5 min. The reaction was initiated by adding 25 μL of acetyl-CoA regenerating system to the incubates. The acetyl-CoA regenerating system consisted of 0.1 mM acetyl-CoA, 4.5 mM acetyl-DL-carnitine, and 2.0 unit/mL carnitine acetyltransferase as final concentrations. The samples were incubated in triplicate for 0 min or 60 min at 37 °C. The reactions were stopped by adding 250 μL of ice-cold acetonitrile containing the IS (camptothecin, 500 ng/mL). Samples were centrifuged at 13,000 rpm for 5 min at 4 °C. An aliquot of 2 μL supernatant was injected in LC-MS/MS system.
For enzyme characterization, an Agilent 6460 triple quadrupole mass spectrometer coupled with a 1260 HPLC system (Agilent Technologies, Santa Clara, CA, USA) and a Kinetex Halo® C18 column (2.7 μm, 2.1 × 50 mm, Advanced Material Technology, Wilmington, DE, USA) were used for chromatographic separation. […] ETN101, M1, and M2 were detected via MRM using ESI in the positive mode. […]

SMILES: Nc1ccc(-c2nc3ccccc3s2)cc1 [M1, 2-(4-aminophenyl)benzothiazole]
- Percentage remaining of M1: 90.3%
